Results reported in PMC5992379 (Frontiers in Molecular Neuroscience, 2018).
“And” between values parts separate entries of the source, which are not always exact repeats. Equal values may be shown once. Read-outs that look alike come from different tables or passages of the source.

Assays:
BALB/c mice [1] = settings: for effect of antagonist on the antiallodynia effect of WOBE437, 3 days treatment / effect of antagonist on the antiinflammatory (edema) effect of WOBE437, 3 days treatment / effect of antagonist on the antiallodynia effect of WOBE437, single dose: antagonist i.p. 30 min before WOBE437 10 mg/kg i.p.
Description: BALB/c mice were anesthetized with xylazine/ketamine (5 and 10 mg/kg, respectively) and subsequently monoarthritis was induced by intra-articular injection of complete Freund’s adjuvant (CFA, 40 μL; Sigma-Aldrich, St. Louis, MO, United states) into the right knee joint. The inflammation was allowed to develop for 14 days prior to pharmacological treatments starting at day 15 for 1 or 3 days, respectively. Mechanical sensitivity (allodynia) and knee diameter (edema) were evaluated 1 h post treatment in the ipsilateral and contralateral knees. Articular sensitivity was evaluated using a digital algometer (Bioseb, United states). […] A cut-off force of 300 g was considered to avoid damage in the tissue. The measurements were done in triplicates and the average was considered for the statistical analysis. To evaluate the degree of inflammation, knee diameter was measured in both extremities using a digital micrometer (Mitutoyo, United states). […] Indomethacin (5 mg/kg; Sigma-Aldrich, United states) was used as a reference drug (positive control). For all the compounds, dimethylsulfoxide (DMSO) was used as vehicle (20 μL, i.p.).

BALB/c male mice [2] = assay: Hot plate test (acute pain) after oral administration; type: in vivo
Description: The test was performed using a clean 54–56°C hot plate (Thermo Fisher Scientific, United states) with a Plexiglas cylinder. The latency to show the first nociceptive response (paw lick or foot shake) was measured.

BALB/c male mice [3] = system: BALB/c male mice; parameters: method as in Chicca et al., 2017; settings: i.p.; ref Chicca et al., 2017; cited from earlier work
BALB/c male mice [4] = assay: Tetrad test; type: in vivo; settings: 50 mg/kg p.o., 1 h after gavage
Description: The tetrad test was performed in the following order: rectal temperature, catalepsy, locomotion and analgesia. Rectal temperature was measured before (basal) and 1 h post gavage administration by using a thermocouple probe (Physitemp Instruments Inc., United states) and results were reported as the difference (Δ) between both temperatures. The bar test was used to evaluated catalepsy by placing the mouse in an imposed position with both forelimbs resting on a bar of 4 cm high; the end point of catalepsy was considered when both front limbs were removed or remained over 120 s. Locomotor activity was determined by placing the mouse on a rotarod (Erweka, Germany) at 4 rpm, the latency to fall was measured with a cut-off time of 120 s. Each mouse was previously trained to walk over the rotarod for at least 120 s. Catalepsy and locomotion were measured in three trials. Analgesia was evaluated with the hot plate test, each mouse was placed in a 54–56°C hot plate (Thermo Fisher Scientific, United states) with a Plexiglas cylinder, the latency to first nociceptive response (paw lick or foot shake) was measured.

BALB/c mice [5] = assay: Open field test in monoarthritic mice; type: in vivo; settings: WOBE437 i.p.
Description: Potential motor changes were evaluated in an open field box (40 cm × 40 cm × 30 cm, Plexiglas). The mice were individually placed in the center and allowed to move freely for 5 min. The locomotion activity was recorded with the OpenFieldTest^© ([Reynoso-Moreno et al., 2017]) and traveled distance was evaluated automatically. After every experiment, the box was cleaned with 70% ethanol to remove odors.

[6] = system: endocannabinoid levels (AEA, 2-AG); assay: Endocannabinoid, N-acylethanolamine and WOBE437 levels by LC-MS/MS after the hot plate test; type: in vivo, BALB/c male mice
From the text: The mice were sacrificed by decapitation after gavage administration. […] Whole brain samples were dissected between the hemispheres.
Samples were centrifuged and the organic phase was recovered.

[7] = system: Cnr1, Cnr2, Nape-pld, Dagla; assay: Real-time PCR of ECS genes after 3 days treatment in the monoarthritis model; type: in vivo, BALB/c mice; settings: 10 mg/kg i.p., somatosensory cortex, thalamus, articular tissue
Description: Total RNA extraction and reverse transcription were carried out with a previously described protocol ([Castro-Torres et al., 2015]). The kit LightCycler® FastStart DNA Master^PLUS SYBR Green I (Roche, United states) was used for the real-time PCR, according to manufacturer protocol, and the reaction was performed in the LightCycler 2.0 equipment (Roche, United states). The relative gene expression was calculated by using the method known as 2ˆ(-ΔΔCt) ([Livak and Schmittgen, 2001]). ΔΔCt was calculated using the following formula:
(1) ΔΔCt=(CtTE−CtHE)−(CtTC−CtHC)
Finally 2ˆ(-ΔΔCt) was calculated to obtain the fold change of gene expression. Every sample (n = 6-15, per group and region) was analyzed in duplicated and the mean value was considered for ΔΔCt calculation. Beta-actin was used as the housekeeping gene and mean of vehicle group was used as a calibrator. Sequences and size products of the primers for beta actin (Actb) cannabinoid CB1 receptor (Cnr1), cannabinoid CB2 receptor (Cnr2), diacylglycerol lipase alpha (Dagla), N-acylphosphatidylethanolamine specific phospholipase D (Nape-pld) are shown in Table 1.

[8] = for WOBE437 brain levels / WOBE437 plasma levels: 20 min after gavage
Description: The mice were sacrificed by decapitation after gavage administration. Brain, blood, liver, kidney, and spleen were collected for the LC-MS/MS analyses. All tissues were briefly washed with ice cold PBS and immediately snap-frozen and stored at -80°C. Whole brain samples were dissected between the hemispheres. Blood samples were immediately centrifuged to obtain plasma, which was stored at -80°C.
Samples extractions and LC-MS/MS measurements we performed as previously described ([Chicca et al., 2017]). Briefly, tissues were weighted and transferred in to extraction tubes containing three steel beads and 0.1 M formic acid. Tissues were homogenized and rapidly transferred to glass tubes containing 1.5 mL of ethyl acetate:hexane (9:1) 0.1% formic acid and internal standards (ISs). Samples were centrifuged and the organic phase was recovered. After evaporation, the extracts were reconstituted in 200 μL of ACN:ddH2O (8:2). 10 μL of the solution were injected in the LC-MS/MS system using the same LC and ionization protocols as described ([Chicca et al., 2017]).

[9] = for Clearance: 1 μM WOBE437, preliminary; for MAB (estimated maximal bioavailability): from liver microsome clearance
Description: Human or mice microsome clearance experiment were carried out as according to a previously describe protocol ([Soethoudt et al., 2017]). […] After 1, 3, 6, 9, 15, 25, 35, and 45 min, 40 μL of the preparation was transferred and quenched with 3:1 (v/v) acetonitrile containing internal standards. Samples were then cooled and centrifuged before analysis by LC-MS/MS. Log peak area ratios (test compound peak area/internal standard peak area) are plotted against incubation time using a linear fit. The calculated slope is used to determine the intrinsic clearance. Data are obtained from single experiments measured with multiple time-points.

[10] = 50 mg/kg p.o., 1 h after gavage

For O=C(Nc1ccccc1)c1cc([N+](=O)[O-])ccc1Cl [GW9662], the “effect of antagonist on the antiallodynia effect of WOBE437, 3 days treatment” value (BALB/c mice [1]; 3 days) was “fully abolished”, the “effect of antagonist on the antiinflammatory (edema) effect of WOBE437, 3 days treatment” value (BALB/c mice [1]; 3 days) was “only partially prevented” and the “effect of antagonist on the antiallodynia effect of WOBE437, single dose” value (from here on “effect of antagonist … single dose”) (BALB/c mice [1]; single dose) was “did not block”.
In the case of Oc1cc2c(cc1O)CN(C(=S)NCCc1ccc(Cl)cc1)CCC2 [capsazepine], the “effect of antagonist … single dose” value (BALB/c mice [1]; single dose) is reported as “completely prevented” and the “tolerability of the antagonist together with 3 days WOBE437 treatment” value (BALB/c mice [1]; capsazepine with WOBE437 10 mg/kg i.p., 3 days) is reported as “unexpected hypersensitivity”.
In the case of SR144528, the “effect of antagonist on the antiallodynia effect of WOBE437, 3 days treatment” value (BALB/c mice [1]; 3 days) is reported as “fully abolished” and the “effect of antagonist … single dose” value (BALB/c mice [1]; single dose) is reported as “completely prevented”.
With Cc1c(C(=O)NN2CCCCC2)nn(-c2ccc(Cl)cc2Cl)c1-c1ccc(Cl)cc1 [rimonabant] the “effect of antagonist on the antiallodynia effect of WOBE437, 3 days treatment” value (BALB/c mice [1]; 3 days) was “fully abolished”, the “effect of antagonist on the antiinflammatory (edema) effect of WOBE437, 3 days treatment” value (BALB/c mice [1]; 3 days) was “only partially prevented” and the “effect of antagonist … single dose” value (BALB/c mice [1]; single dose) was “did not block”. The “effect of antagonist pre-treatment on the antinociceptive effect of WOBE437” value (BALB/c male mice [2]; rimonabant 5 mg/kg i.p. 30 min before WOBE437 50 or 100 mg/kg p.o.) was “completely abolished”.
For CCCCCCC/C=C/C=C/C(=O)NCCc1ccc(OC)c(OC)c1 [WOBE437], the “reduction in allodynia as compared to the contralateral knee” value (BALB/c mice [1]; 10 mg/kg i.p., 3 days treatment) was 52%, the “reduction of inflammation (edema)” value (BALB/c mice [1]; 10 mg/kg i.p., 3 days treatment, as compared to the contralateral knee) was 58% and the knee diameter (BALB/c mice [1]; 10 mg/kg i.p., 3 days treatment, ipsilateral knee) was 5.3 ± 0.4 mm. For the same compound, the “allodynia after single dose” value (BALB/c mice [1]; 10 mg/kg i.p., single dose, 1 h post treatment) was “significantly decrease allodynia”, the “allodynia and edema at lower doses” value (BALB/c mice [1]; 2.5 and 5.0 mg/kg i.p.) was “did not show any significant changes” and the “fully effective dose in the hot plate test upon systemic administration” value (BALB/c male mice [3]) was 10 mg/kg. For the same compound, the “antinociception in tetrad test (hot plate)” value (BALB/c male mice [4]) was “significant antinociception”, the “motor coordination (rotarod)” value (BALB/c male mice [4]) was “No statistical differences” and the “change in body temperature” value (BALB/c male mice [4]; not statistically different) was -0.8 ± 0.8 °C. For the same compound, the latency of catalepsy (BALB/c male mice [4]; not statistically different) was 10.5 ± 10.6 s, the “spontaneous motor activity (travel distance)” value (BALB/c mice [5]) was “without significant observable changes” and the “2-AG levels in plasma” value ([6]; 25 mg/kg p.o., 1 h) was 21.4 ± 4.5 pmol/mL. The “2-AG levels in plasma” value ([6]; 50 mg/kg p.o., 1 h) was 22.6 ± 4.8 pmol/mL, the “2-AG levels in somatosensory cortex” value ([6]; 50 mg/kg p.o., 1 h) was “no changes” and the “AEA and 2-AG levels in total brain” value ([6]; 50 mg/kg p.o., 1 h) was “tendency to increase”. The “AEA levels in somatosensory cortex” value ([6]; 50 mg/kg p.o., 1 h) was “significant increase”, the “concentration of AEA in plasma” value ([6]; 50 mg/kg p.o., 1 h) was 2.2 ± 0.3 pmol/mL and the “2-AG concentration in total brain” value ([6]; 50 mg/kg p.o., 1 h, tendency, not significant) was 13.9 ± 2.6 nmol/g. The “2-AG levels in plasma” value ([6]; 100 mg/kg p.o., 1 h) was 23.8 ± 5.7 pmol/mL, the “increase of 2-AG levels in plasma” value ([6]; 25, 50, and 100 mg/kg p.o., vs control) was 40% and the “levels of WOBE437 in somatosensory cortex, total brain and plasma” value ([6]; BALB/c mice, 1 h after p.o.) was “in the same range as in male C57BL6/J mice”. For the same compound, the “levels of N-acylethanolamines other than AEA (PEA, OEA, LEA)” value ([6]; somatosensory cortex, total brain or plasma, 1 h after p.o.) was “No changes”, the “expression of Cnr1, Cnr2, Dagla and Nape-pld” value [7] was “did not lead to any significant change” and the WOBE437 brain levels ([8]; 10 mg/kg p.o.) was 24.7 ± 25.3 pmol/g. For the same compound, the WOBE437 plasma levels ([8]; 10 mg/kg p.o.) was 47.3 ± 32.5 pmol/mL, the “apparent Cmax in brain” value ([8]; 50 mg/kg p.o.) was ~500 pmol/g and 471.7 ± 182.6 pmol/g and the “apparent volume of distribution (Vd) at Cmax” value ([8]; 50 mg/kg p.o.) was 80.4 L/kg. The “apparent volume of distribution (Vd) at the steady state” value ([8]; 50 mg/kg p.o.) was 609 L/kg, the “factor of reduction of hepatic concentration between 20 and 40 min” value ([8]; 50 mg/kg p.o.) was 4 and the “highest concentration in kidney” value ([8]; 50 mg/kg p.o.) was 2277 ± 916 pmol/g. The “highest concentration in spleen” value ([8]; 50 mg/kg p.o.) was 1030 ± 339 pmol/g, the “time after which WOBE437 is cleared from the brain” value ([8]; 50 mg/kg p.o.) was “approximately 180 min” and the “tmax in kidney, liver, and spleen” value ([8]; 50 mg/kg p.o.) was ≤ 20 min. For the same compound, the “brain levels after p.o. as compared to i.p.” value ([8]; 50 mg/kg p.o. vs 10 mg/kg i.p.) was “approximately 10 times lower”, the “highest concentration in liver” value ([8]; 50 mg/kg p.o., 20 min) was 4720 ± 3273 pmol/g and the WOBE437 brain levels ([8]; 50 mg/kg p.o.) was 534.5 ± 109.9 pmol/g. For the same compound, the WOBE437 plasma levels ([8]; 50 mg/kg p.o.) was 1731.5 ± 703.4 pmol/mL, the “hepatic concentration at 40 min” value ([8]; 50 mg/kg p.o., 40 min) was 1080 pmol/g and the “WOBE437 concentration in brain 3 h after administration” value ([8]; 50 mg/kg p.o., 3 h) was 18 pmol/g. The “Brain t1/2” value ([8]; 50 mg/kg p.o., Figure 1B) was 62.7 min, the “Plasma t1/2” value ([8]; 50 mg/kg p.o., Figure 1B) was 19.5 min and the “estimated concentration in brain” value ([8]; 50 mg/kg p.o., equivalent of brain Cmax) was 399.7 ± 154.7 nM. The Cmax ([8]; read-out: apparent Cmax in plasma, 50 mg/kg p.o.) was ~2000 nM and 1930 nM, the Clearance ([9]; human liver microsomes) was 0.657 mL/min/kg and the “MAB (estimated maximal bioavailability)” value ([9]; humans) was 4%. For the same compound, the “MAB (estimated maximal bioavailability)” value ([9]; mice) was 17%, the Clearance ([9]; mouse liver microsomes) was 0.174 mL/min/kg and the “increase of pain threshold vs vehicle” value (BALB/c male mice [2]; [10]) was 61.7%. The “pain threshold (latency to first nociceptive response)” value (BALB/c male mice [2]; [10]) was 9.4 ± 1.9 s, the “pain threshold (latency to first nociceptive response)” value (BALB/c male mice [2]; 100 mg/kg p.o., 1 h after gavage) was 11.7 ± 2.6 s and the “overall bioavailability compared to the i.p. administration route” value (BALB/c male mice [2]; from effective doses in hot plate test, 50 mg/kg p.o. vs 10 mg/kg i.p.) was 20%. The “estimated effective dose (ED50)” value (BALB/c male mice [2]; p.o., hot plate) was 42.5 ± 3.9 mg/kg and the “minimum dose necessary to significantly increase the pain threshold” value (BALB/c male mice [2]; p.o., hot plate) was 50 mg/kg.
